Experimental data from ChEMBL document CHEMBL1201862, “PubChem BioAssay data set” (2004).
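Values below derive from 48-hour exposures of cells grown in 96-well plates, with endpoints linearly interpolated between the two concentrations bracketing the appropriate inhibition level. Here, GI50 denotes the concentration required for 50% inhibition of growth.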 The source made the active and inactive calls. Cut-off read from the data, not from the text of the source: active = GI50 up to about 1.1 µM and inactive = higher.

What was measured:
Test in all cases: DTP human tumour cell line panel, 48 h
A549 = system: A549
CCRF-CEM = system: CCRF-CEM
HCT-116 = system: HCT-116
HT-29 = system: HT-29
IGROV-1 = system: IGROV-1
KM12 = system: KM12
MCF7 = system: MCF7
Malme-3M = system: Malme-3M
NCI-H522 = system: NCI-H522
OVCAR-3 = system: OVCAR-3
OVCAR-4 = system: OVCAR-4
RPMI-8226 = system: RPMI-8226
SK-MEL-5 = system: SK-MEL-5
SR = system: SR
SW-620 = system: SW-620
T47D = system: T47D
TK-10 = system: TK-10
UACC-62 = system: UACC-62
UO-31 = system: UO-31
A498 = system: A498

Measured: GI50

O=C1Nc2cccc3cc(NCC(O)CCl)cc1c23 (configuration not stated)
inactive: A549 56.9 µM | CCRF-CEM 22.2 µM | HCT-116 33.7 µM | HT-29 58.7 µM | IGROV-1 59 µM | KM12 35.2 µM | MCF7 45.7 µM | Malme-3M 88.1 µM | NCI-H522 59.2 µM | OVCAR-3 51.4 µM | OVCAR-4 > 100 µM | RPMI-8226 > 100 µM | SK-MEL-5 49.8 µM | SR 11.7 µM | SW-620 40.5 µM | T47D 88.5 µM | TK-10 75.5 µM | UACC-62 49.9 µM | UO-31 31.3 µM

COc1ccc(C2CC(=O)CC(c3ccc(OC)cc3)C23C(=O)NC(=O)NC3=O)cc1 (configuration not stated)
inactive: CCRF-CEM 32.7 µM | HCT-116 27.4 µM | HT-29 33.2 µM | IGROV-1 26.2 µM | KM12 25.6 µM | MCF7 25.1 µM | Malme-3M 25.9 µM | NCI-H522 23.3 µM | OVCAR-3 19.3 µM | OVCAR-4 67 µM | SK-MEL-5 25 µM | SR 30.4 µM | SW-620 18.7 µM | T47D > 10 µM | TK-10 89.5 µM | UACC-62 64.1 µM | UO-31 31.6 µM

COc1ccc(C2CC3(c4ccccc4)ON=C(c4ccccc4)N3c3ccccc3S2)cc1 (configuration not stated)
inactive: A498 > 100 µM | A549 > 100 µM | CCRF-CEM > 100 µM | HCT-116 > 100 µM | HT-29 > 100 µM | IGROV-1 > 100 µM | KM12 > 100 µM | MCF7 > 100 µM | Malme-3M > 100 µM | NCI-H522 > 100 µM | OVCAR-3 > 100 µM | OVCAR-4 > 100 µM | RPMI-8226 > 100 µM | SK-MEL-5 > 100 µM | SW-620 > 100 µM | T47D > 100 µM | TK-10 > 100 µM | UACC-62 > 100 µM | UO-31 51.2 µM

CCn1c(=O)c2nc(SC)sc2n(-c2ccccc2)c1=O
inactive: A549 > 100 µM | CCRF-CEM > 100 µM | HCT-116 > 100 µM | HT-29 > 100 µM | IGROV-1 > 100 µM | KM12 > 100 µM | MCF7 > 100 µM | Malme-3M > 100 µM | NCI-H522 > 100 µM | OVCAR-3 > 100 µM | OVCAR-4 > 100 µM | RPMI-8226 > 100 µM | SK-MEL-5 > 100 µM | SR > 100 µM | SW-620 > 100 µM | T47D > 100 µM | TK-10 > 100 µM | UO-31 26 µM

CN(NC(=O)c1ccco1)C1=NCCCCN1
inactive: A549 > 100 µM | CCRF-CEM > 100 µM | HCT-116 > 100 µM | HT-29 > 100 µM | IGROV-1 > 100 µM | KM12 > 100 µM | MCF7 > 100 µM | Malme-3M > 100 µM | NCI-H522 > 100 µM | OVCAR-3 > 100 µM | OVCAR-4 > 100 µM | RPMI-8226 > 100 µM | SK-MEL-5 > 100 µM | SR > 100 µM | SW-620 > 100 µM | T47D > 100 µM | TK-10 > 100 µM | UACC-62 > 100 µM | UO-31 > 100 µM

CC(C)C1=CC23CCC4C(C)(C(=O)O)CCCC4(C)C2CC1C1C(=O)N(c2ccc(C(=O)O)cc2)C(=O)C13 (configuration not stated)
inactive: A549 > 100 µM | HCT-116 > 100 µM | HT-29 > 100 µM | IGROV-1 > 100 µM | KM12 > 100 µM | MCF7 > 100 µM | Malme-3M > 100 µM | NCI-H522 > 100 µM | OVCAR-3 > 100 µM | OVCAR-4 > 100 µM | RPMI-8226 > 100 µM | SK-MEL-5 > 100 µM | SW-620 > 100 µM | T47D > 100 µM | TK-10 > 100 µM | UACC-62 > 100 µM | UO-31 > 100 µM

COc1cc(C=O)ccc1O [VANILLIN]
inactive: A549 > 100 µM | CCRF-CEM > 100 µM | HCT-116 > 100 µM | HT-29 > 100 µM | IGROV-1 > 100 µM | KM12 > 100 µM | MCF7 > 100 µM | Malme-3M > 100 µM | NCI-H522 > 100 µM | OVCAR-3 > 100 µM | OVCAR-4 > 100 µM | RPMI-8226 > 100 µM | SK-MEL-5 > 100 µM | SR > 100 µM | SW-620 > 100 µM | T47D > 100 µM | TK-10 > 100 µM | UO-31 > 100 µM
